Our source for the outcome values is PubChem BioAssay AID2202554 (NIEHS Division of Translational Toxicology (DTT)).

The data set concerns S. typhimurium/E. coli reverse mutation, colony counts. The data set can be described thus: Bacterial reverse mutation test (aka Ames test) summary data. The gist of the method: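 S. typhimurium his⁻ strains (TA97–TA1538) and E. coli WP2 uvrA pKM101 trp⁻, dosed over a range with or without rat, hamster or mouse liver S9. Preincubated 20 min at 37° C (or plate incorporation), plated in agar, incubated usually two days. Revertant colonies counted against negative controls.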

Results filed as inconclusive are left out. Activity calls are given as the source filed them. The rule behind the calls is not given here.

As for `O=[N+]([O-])c1ccccc1CCO`, the outcome is “active; positive”. The result for `O=c1[nH]c(=O)n(Cl)c(=O)n1Cl` reads “inactive; negative”; that for `O=CCCCC=O`, “active; positive”; that for `O=C1c2cccc(O)c2C(=O)c2c(O)cccc21`, “active; weakly positive”.

For the compound `CCCC=C(C=O)CC`, the outcome was “inactive; negative”. The result for `O=C(O)c1cccc(Cl)c1` reads “inactive; negative”; that for `CCCC(C)(COC(N)=O)COC(=O)NC(C)C` (stereo not drawn), “inactive; negative”. The result for `CCCCCCCCCCCC[S][Sn]([CH2]CCC)([CH2]CCC)[S]CCCCCCCCCCCC` reads “inactive; negative”; that for `CC(=O)c1ccncc1`, “inactive; negative”; that for `CCCCCCCCCCCCCCC1CO1` (stereo not drawn), “inactive; negative”.

In the case of `SCCc1cnccn1`, the outcome was “inactive; negative”. The same measure for `Oc1c(Cl)c(Cl)cc(Cl)c1Cl`: “inactive; negative”; for `CCN(CC)c1ccccc1`: “inactive; negative”.

As to `CC(C)[C@@H]1CC[C@@H](C)C[C@@H]1O`, the outcome was “inactive; negative”. The same measure for `CC(=O)CC(=O)N(C)C`: “inactive; negative”; for `Cc1ccc([N+](=O)[O-])c(C(=O)O)c1`: “active; positive”.

`CC1CO1` (stereo not drawn): the outcome is “active; positive”. The same measure for `CCOC(=O)c1ccccc1C(=O)OCC`: “inactive; negative”. For the compound `COP(=S)(OC)SCn1nnc2ccccc2c1=O`, the outcome is “active; positive”. The same measure for `CN(C)C`: “inactive; negative”. The same measure for `CC1=CC(C)(C)Nc2ccccc21`: “inactive; negative”. With `NC(=O)c1cnccn1`, the outcome is “inactive; negative”. The result for `Nc1c(N=Nc2ccc([N+](=O)[O-])cc2)c(S(=O)(=O)O)cc2cc(S(=O)(=O)O)c(N=Nc3ccccc3)c(O)c12` reads “active; positive”. The same measure for `ClC(Cl)C(Cl)(Cl)Cl`: “inactive; negative”; for `O=C1OC2(c3cc(Br)c(O)c(Br)c3Oc3c2cc(Br)c(O)c3Br)c2c(Cl)c(Cl)c(Cl)c(Cl)c21`: “active; positive”; for `C[C@@H]1C[C@@H]([C@H](O)CC2CC(=O)NC(=O)C2)C(=O)[C@@H](C)C1`: “inactive; negative”. The result for `CCCCCC=CC=CC=O` reads “inactive; negative”; that for `Cc1ccc(N=C=O)cc1N=C=O`, “active; positive”; that for `C=CBr`, “active; positive”. For the compound `O=c1cc(-c2ccc(O)cc2)oc2cc(O)cc(O)c12`, the outcome is “inactive; negative”.

`C=O`: the outcome was “active; positive”.

With `Nc1cc(Cl)ccc1O`, the outcome was “active; weakly positive”. The same measure for `Cc1ccc(O)c(N)c1`: “active; positive”; for `CCOc1ccc(NC(C)=O)cc1N`: “active; positive”. As for `Cc1cccc2cccnc12`, the outcome was “active; positive”. The same measure for `C=C1CC/C=C(\C)CC[C@@H]2[C@@H]1CC2(C)C`: “inactive; negative”; for `Oc1cc(Cl)ccc1Cl`: “inactive; negative”. The result for `Cc1cccc(C)c1[N+](=O)[O-]` reads “active; weakly positive”; that for `CC1(C)S[C@@H]2[C@H](NC(=O)COc3ccccc3)C(=O)N2[C@H]1C(=O)O`, “inactive; negative”. As to `COc1cc([C@H]2Oc3cc([C@H]4Oc5cc(O)cc(O)c5C(=O)[C@@H]4O)ccc3O[C@@H]2CO)ccc1O`, the outcome is “inactive; negative”.

In the case of `Cc1coc2c1CCC(C)C2` (stereo not drawn), the outcome is “inactive; negative”. The same measure for `C=CCC1(C(C)C#CCC)C(=O)N=C(O)N(C)C1=O` (stereo not drawn): “inactive; negative”; for `Oc1cc(Cl)c(Cl)c(Cl)c1`: “inactive; negative”.
